Source: ChEMBL document CHEMBL3396992, “Synthesis and biological evaluation of pyrazolylthiazole carboxylic acids as potent anti-inflammatory-antimicrobial agents” (2015)
In brackets after ≈: the same amount, converted by molar mass. Activity calls are given as the source filed them. The calls are words filed in the database; no cut-off is given here.

Legend:
Pseudomonas aeruginosa [1] = assay: microbe, parasite or virus in culture; settings: MTCC 741, 24 h, read-out: DIZ
Description: (§1) Antimicrobial activity against Pseudomonas aeruginosa MTCC 741 assessed as growth inhibition at 4 mg/ml after 24 hrs by agar well diffusion method

Bacillus subtilis [2] = assay: Antimicrobial activity against Bacillus subtilis MTCC 121 assessed as growth inhibition at 4 mg/ml after 24 hrs by agar well diffusion method; format: functional; settings: for zone of inhibition at 4000 µg/mL: MTCC 121, 24 h, read-out: DIZ
Staphylococcus aureus [3] = assay: Antimicrobial activity against Staphylococcus aureus MTCC 96 assessed as growth inhibition at 4 mg/ml after 24 hrs by agar well diffusion method; format: functional; settings: for zone of inhibition at 4000 µg/mL: MTCC 96, 24 h, read-out: DIZ
Bacillus subtilis [4] = assay: Antimicrobial activity against Bacillus subtilis MTCC 121 assessed as growth inhibition after 24 hrs by agar well diffusion method; format: functional
Staphylococcus aureus [5] = assay: Antimicrobial activity against Staphylococcus aureus MTCC 96 assessed as growth inhibition after 24 hrs by agar well diffusion method; format: functional
Rattus norvegicus [6] = assay: Antiinflammatory activity against carrageenan-induced paw edema male Wistar albino rat assessed as edema volume at 50 mg/kg, po administered 30 mins prior to carrageenan-challenge measured after 1 hr (reference value: 1.11 +/- 0.12 mL); format: functional
Rattus norvegicus [7] = assay: Antiinflammatory activity against carrageenan-induced paw edema male Wistar albino rat assessed as edema volume at 50 mg/kg, ip administered 30 mins prior to carrageenan-challenge measured after 4 hrs (reference value: 1.88 +/- 0.20 mL); format: functional; settings: route intraperitoneal
Candida albicans [8] = assay: Antimicrobial activity against Candida albicans MTCC 3017 assessed as growth inhibition after 24 hrs by agar well diffusion method; format: functional; settings: MTCC 3017, 24 h
Saccharomyces cerevisiae [9] = assay: Antimicrobial activity against Saccharomyces cerevisiae MTCC 170 assessed as growth inhibition after 24 hrs by agar well diffusion method; format: functional
Saccharomyces cerevisiae [10] = assay: Antimicrobial activity against Saccharomyces cerevisiae MTCC 170 assessed as growth inhibition at 4 mg/ml after 24 hrs by agar well diffusion method; format: functional; settings: for zone of inhibition at 4000 µg/mL: MTCC 170, 24 h, read-out: DIZ
Rattus norvegicus [11] = assay: Antiinflammatory activity against carrageenan-induced paw edema male Wistar albino rat assessed as edema volume at 50 mg/kg, ip administered 30 mins prior to carrageenan-challenge measured after 2 hrs (reference value: 1.21 +/- 0.16 mL); format: functional; settings: route intraperitoneal
Rattus norvegicus [12] = assay: Antiinflammatory activity against carrageenan-induced paw edema male Wistar albino rat at 50 mg/kg, ip administered 30 mins prior to carrageenan-challenge measured after 1 hr relative to control; format: functional; settings: route intraperitoneal
Rattus norvegicus [13] = assay: Antiinflammatory activity against carrageenan-induced paw edema male Wistar albino rat at 50 mg/kg, ip administered 30 mins prior to carrageenan-challenge measured after 4 hrs relative to control; format: functional; settings: route intraperitoneal
Pseudomonas aeruginosa [14] = settings: MTCC 741, 4 mg/ml
Description: as §1

Rattus norvegicus [15] = assay: Antiinflammatory activity against carrageenan-induced paw edema male Wistar albino rat assessed as edema volume at 50 mg/kg, ip administered 30 mins prior to carrageenan-challenge measured after 3 hrs (reference value: 1.73 +/- 0.09 mL); format: functional; settings: route intraperitoneal
Rattus norvegicus [16] = assay: Antiinflammatory activity against carrageenan-induced paw edema male Wistar albino rat at 50 mg/kg, ip administered 30 mins prior to carrageenan-challenge measured after 2 hrs relative to control; format: functional; settings: route intraperitoneal
Rattus norvegicus [17] = assay: Antiinflammatory activity against carrageenan-induced paw edema male Wistar albino rat at 50 mg/kg, ip administered 30 mins prior to carrageenan-challenge measured after 3 hrs relative to control; format: functional; settings: route intraperitoneal
Candida albicans [18] = assay: Antimicrobial activity against Candida albicans MTCC 3017 assessed as growth inhibition at 4 mg/ml after 24 hrs by agar well diffusion method; format: functional; settings: MTCC 3017, 24 h, read-out: DIZ
Escherichia coli = assay: Antimicrobial activity against Escherichia coli MTCC 1652 assessed as growth inhibition at 4 mg/ml after 24 hrs by agar well diffusion method; format: functional, organism-based

Row | SMILES | zone of inhibition at 4000 µg/mL (Bacillus subtilis [2]) [mm] | zone of inhibition at 4000 µg/mL (Staphylococcus aureus [3]) [mm] | MIC (Bacillus subtilis [4]; MTCC 121, 24 h) [µg/mL] | MIC (Staphylococcus aureus [5]; MTCC 96, 24 h) [µg/mL] | Activity (Rattus norvegicus [6]) [mL] | Activity (Rattus norvegicus [7]) [mL] | MIC (Candida albicans [8]) [µg/mL] | MIC (Saccharomyces cerevisiae [9]; MTCC 170, 24 h) [µg/mL] | zone of inhibition at 4000 µg/mL (Saccharomyces cerevisiae [10]) [mm] | Activity (Rattus norvegicus [11]) [mL] | Activity (Rattus norvegicus [12]) [%] | Activity (Rattus norvegicus [13]) [%] | DIZ (Pseudomonas aeruginosa [14]) | Activity (Rattus norvegicus [15]) [mL] | Activity (Rattus norvegicus [16]) [%] | Activity (Rattus norvegicus [17]) [%] | zone of inhibition at 4000 µg/mL (Candida albicans [18]) [mm] | diameter of the inhibition zone (DIZ) (Escherichia coli) | MIC (Saccharomyces cerevisiae [9]) | diameter of the inhibition zone (DIZ) (Saccharomyces cerevisiae [10]) | other results
1 | O=C(O)c1cn(C2CC2)c2cc(N3CCNCC3)c(F)cc2c1=O [CIPROFLOXACIN] | 24 | 24 | 6.25 (≈ 18.9 µM) | – | – | – | – | – | – | – | – | – | – | – | – | – | – | – | – | – | zone of inhibition at 4000 µg/mL (Pseudomonas aeruginosa [1]): 22 mm
2 | COc1ccc(-c2nn(-c3ccccc3)cc2-c2nc(-c3ccccc3)c(C(=O)O)s2)cc1 | 18.6 | 21.6 | 25 (≈ 55.1 µM) | 25 (≈ 55.1 µM) | 0.2 | 0.23 | 50 (≈ 110 µM) | 50 (≈ 110 µM) | 16 | 0.16 | 81.98 | 87.76 | inactive | 0.21 | 86.77 | 87.86 | 16.3 | inactive | – | – | –
3 | COc1ccc(-c2nn(-c3ccccc3)cc2-c2nc(-c3ccc(Cl)cc3)c(C(=O)O)s2)cc1 | 29.6 | 24.6 | 6.25 (≈ 12.8 µM) | 6.25 (≈ 12.8 µM) | 0.18 | 0.2 | 6.25 (≈ 12.8 µM) | 6.25 (≈ 12.8 µM) | 27.6 | 0.26 | 83.78 | 89.36 | inactive | 0.28 | 78.51 | 83.81 | 27.6 | inactive | – | – | –
4 | COc1ccc(-c2nc(-c3cn(-c4ccccc4)nc3-c3ccc(F)cc3)sc2C(=O)O)cc1 | 14.6 | 20.6 | 50 (≈ 106 µM) | 25 (≈ 53 µM) | 0.22 | 0.36 | 50 (≈ 106 µM) | 50 (≈ 106 µM) | 15.3 | 0.4 | 80.18 | 80.85 | inactive | 0.56 | 66.94 | 67.63 | 15.3 | inactive | – | – | –
5 | O=C(O)c1sc(-c2cn(-c3ccccc3)nc2-c2ccccc2)nc1-c1ccc(Cl)cc1 | 17.6 | 21 | 50 (≈ 109 µM) | 25 (≈ 54.6 µM) | 0.14 | 0.22 | 50 (≈ 109 µM) | 25 (≈ 54.6 µM) | 20.6 | 0.21 | 87.38 | 88.29 | inactive | 0.2 | 82.64 | 88.43 | 17.6 | inactive | – | – | –
6 | COc1ccc(-c2nc(-c3cn(-c4ccccc4)nc3-c3ccccc3)sc2C(=O)O)cc1 | 17.6 | 20.3 | 50 (≈ 110 µM) | 25 (≈ 55.1 µM) | 0.19 | 0.22 | 50 (≈ 110 µM) | 25 (≈ 55.1 µM) | 21.3 | 0.25 | 82.88 | 88.29 | inactive | 0.24 | 79.33 | 86.12 | 15.3 | inactive | – | – | –
7 | CCOC(=O)c1sc(-c2cn(-c3ccccc3)nc2-c2ccccc2)nc1-c1ccc(Cl)cc1 | – | – | – | – | 0.22 | 0.22 | 50 (≈ 103 µM) | – | – | 0.15 | 80.18 | 87.23 | inactive | 0.24 | 87.6 | 87.23 | 17.3 | inactive | inactive | inactive | MIC (Staphylococcus aureus [5]): inactive; diameter of the inhibition zone (DIZ) (Bacillus subtilis [2]): inactive; diameter of the inhibition zone (DIZ) (Staphylococcus aureus [3]): inactive; MIC (Bacillus subtilis [4]): inactive
8 | O=C(O)c1sc(-c2cn(-c3ccccc3)nc2-c2ccccc2)nc1-c1ccc(F)cc1 | 18.3 | 24.6 | 25 (≈ 56.6 µM) | 12.5 (≈ 28.3 µM) | 0.19 | 0.17 | 12.5 (≈ 28.3 µM) | 25 (≈ 56.6 µM) | 20.6 | 0.16 | 82.88 | 90.95 | inactive | 0.18 | 86.77 | 89.59 | 25.6 | inactive | – | – | –
9 | CCOC(=O)c1sc(-c2cn(-c3ccccc3)nc2-c2ccc(OC)cc2)nc1-c1ccccc1 | 15 | – | 50 (≈ 104 µM) | – | 0.11 | 0.24 | 25 (≈ 51.9 µM) | – | – | 0.2 | 90.19 | 90.95 | inactive | 0.33 | 83.47 | 80.92 | 18.3 | inactive | inactive | inactive | MIC (Staphylococcus aureus [5]): inactive; diameter of the inhibition zone (DIZ) (Staphylococcus aureus [3]): inactive
10 | CCOC(=O)c1sc(-c2cn(-c3ccccc3)nc2-c2ccccc2)nc1-c1ccccc1 | 11 | 14.3 | 50 (≈ 111 µM) | 50 (≈ 111 µM) | 0.1 | 0.24 | 50 (≈ 111 µM) | – | – | 0.3 | 90.99 | 87.23 | inactive | 0.28 | 75.2 | 83.81 | 15.3 | inactive | inactive | inactive | –
11 | CCOC(=O)c1sc(-c2cn(-c3ccccc3)nc2-c2ccc(F)cc2)nc1-c1ccc(OC)cc1 | 13.3 | – | 50 (≈ 100 µM) | – | 0.22 | 0.32 | 50 (≈ 100 µM) | – | – | 0.27 | 80.18 | 82.97 | inactive | 0.39 | 79.33 | 77.45 | 15.6 | inactive | inactive | inactive | MIC (Staphylococcus aureus [5]): inactive; diameter of the inhibition zone (DIZ) (Staphylococcus aureus [3]): inactive
